Measured values published in PMC3997483, “Aminostyrylbenzofuran Directly Reduces Oligomeric Amyloid-β and Reverses Cognitive Deficits in Alzheimer Transgenic Mice” (PLoS ONE, 2014).

Columns and labels:
soluble Aβ oligomers = experiment: Dot-blot immunoassay (A11/6E10) of soluble Aβ oligomers in hippocampus, prophylactic trial; assay type: in vivo, mouse; conditions: hippocampus soluble fraction
Procedure: Mice subjected to behavior tests were sacrificed and levels of Aβ in their brains were analyzed. After removing olfactory lobe and cerebellum of brain, hippocampus and cerebral cortex were separated. The separated regions were Dounce-homogenized first in 10-fold mass of a lysis buffer (RIPA, 150 mM NaCl, 1% NP-40, 0.5% deoxycholic acid, 0.1% SDS and 50 mM tris, pH 8.0) or tris buffer (50 mM tris and pH 8.0) containing protease inhibitor cocktail (Pierce, USA) for prophylactic or therapeutic treatment groups, respectively. The homogenates were then centrifuged at 16,000 g for 20 min at 4°C. The supernatant (soluble Aβ fraction) was collected and stored at −70°C until analyzed. The resulting pellet was solubilized in 20-fold mass of cold guanidine solution (5 M guanidine HCl, 50 mM tris HCl and pH 8.0) at room temperature for 4 hr followed by dilution with cold Dulbecco's phosphate buffered saline (PBS) with 5% BSA and 0.03% tween-20. The diluent was centrifuged at 16,000 g for 20 min at 4°C to obtain the insoluble Aβ fraction. The tissue concentrations of Aβ40 and Aβ42 in the soluble and insoluble fraction were measured using Aβ-detecting sandwich enzyme-linked immunosorbent assay (ELISA) kit (BioSource, USA). The levels of soluble Aβ oligomers were measured by a dot-blot immunoassay with an anti-oligomer antibody and an anti-Aβ antibody on soluble fraction of hippocampus homogenates. The homogenate sample (3 µL) was spotted onto nitrocellulose membrane (Whatman, UK). After blocking with 5% BSA in tris-buffered saline (TBS) for 1 hr at room temperature, the membrane was incubated with rabbit anti-oligomer polyclonal antibody (A11; 1∶1,000; Millipore, USA) overnight at 4°C, followed by incubation with HRP-secondary anti-rabbit antibody (1∶5,000; Millipore, USA) for 1 hr at room temperature. Blots were developed using ECL reagents (PerkinElmer, USA). […] The density of dots was analyzed with Multi Gauge program (Fuji Film, Japan) and the data was normalized to the average density of the TG control group. […]

[1] = Pharmacokinetics IV/PO in monkeys; assay type: in vivo, cynomolgus monkeys; conditions: for AUC(0-t): read-out: AUC0–24h
Procedure: Pharmacokinetics profile of KMS88009 was obtained using ICR mice, SD rats, beagle dogs and cynomolgus monkeys. Animals were fasted overnight before KMS88009 administration. Mice were divided into 2 groups to receive KMS88009 as a single dose of 2.1 mg/kg intravenous (IV) bolus or 10 mg/kg orally (PO) by gavage. Additionally, KMS88009 was administered orally to estimate the BBB penetration in mice (10, 30 and 100 mg/kg). […] Dog received KMS88009 either as an IV bolus (1 mg/kg) via the great saphenous vein or by oral gavage (4 mg/kg). […] Vehicle for IV and PO administration was DMSO/tween-20/saline (3.3∶19.8∶79.6). […]. Brain samples were weighed and Daunce-homogenized in 10-fold volume of ice-chilled 4% bovine serum albumin (BSA) solution at room temperature. Plasma and brain homogenates were kept frozen at −70°C until analysis. The levels of KMS88009 were determined by the LC-MS/MS analysis. Pharmacokinetic parameters, time to the maximum concentration (Tmax), maximum concentration (Cmax), elimination half-life (T1/2), volume of distribution (Vd), clearance (Cl) and mean residual time (MRT), of KMS88009 were calculated based on plasma concentration-time data by a non-compartmental method using WinNonlin Version 5.2 (Pharsight, USA). Area under the curve from 0 to 24 hr (AUC0-24h) and area under the curve from 0 to infinity (AUCINF) were obtained by linear and log linear trapezoidal summations.

[2] = Pharmacokinetics IV/PO in dogs; assay type: in vivo, beagle dogs; conditions: for AUC(0-t): read-out: AUC0–24h
Procedure: Pharmacokinetics profile of KMS88009 was obtained using ICR mice, SD rats, beagle dogs and cynomolgus monkeys. Animals were fasted overnight before KMS88009 administration. Mice were divided into 2 groups to receive KMS88009 as a single dose of 2.1 mg/kg intravenous (IV) bolus or 10 mg/kg orally (PO) by gavage. Additionally, KMS88009 was administered orally to estimate the BBB penetration in mice (10, 30 and 100 mg/kg). […] Dog received KMS88009 either as an IV bolus (1 mg/kg) via the great saphenous vein or by oral gavage (4 mg/kg). KMS88009 was administrated to monkeys as an IV bolus (1 mg/kg) via the femoral vein or by oral gavage (4 mg/kg). Vehicle for IV and PO administration was DMSO/tween-20/saline (3.3∶19.8∶[…]). […]. Brain samples were weighed and Daunce-homogenized in 10-fold volume of ice-chilled 4% bovine serum albumin (BSA) solution at room temperature. Plasma and brain homogenates were kept frozen at −70°C until analysis. The levels of KMS88009 were determined by the LC-MS/MS analysis. Pharmacokinetic parameters, time to the maximum concentration (Tmax), maximum concentration (Cmax), elimination half-life (T1/2), volume of distribution (Vd), clearance (Cl) and mean residual time (MRT), of KMS88009 were calculated based on plasma concentration-time data by a non-compartmental method using WinNonlin Version 5.2 (Pharsight, USA). Area under the curve from 0 to 24 hr (AUC0-24h) and area under the curve from 0 to infinity (AUCINF) were obtained by linear and log linear trapezoidal summations.

[3] = cynomolgus monkey, plasma, monkey IV 0.77 mg/kg
[4] = cynomolgus monkey, plasma, monkey PO 5.6 mg/kg
[5] = cynomolgus monkey, monkey IV 0.77 mg/kg, plasma
[6] = cynomolgus monkey, monkey PO 5.6 mg/kg, plasma

Compound: COc1ccc2cc(C=Cc3ccc(N(C)C)cc3)oc2c1 [KMS88009, 6-methoxy-2-(4-dimethylaminostyryl) benzofuran]
- reduction of soluble oligomeric Aβ vs vehicle-treated TG group (soluble Aβ oligomers; 10 mg/kg/day): 43.1%
- reduction of soluble oligomeric Aβ vs vehicle-treated TG group (soluble Aβ oligomers; 30 mg/kg/day): 43.2%
- reduction of soluble oligomeric Aβ vs vehicle-treated TG group (soluble Aβ oligomers; 100 mg/kg/day): 46.4%
- MRT last [1, 3]: 3.6 ± 0.5 h
- Vd [1, 3]: 4.4 ± 1.1 L/kg
- clearance [1, 3]: 8.33 mL/min/kg
- half-life [1, 3]: 5.8 ± 0.8 h
- MRT last [1, 4]: 5.9 ± 0.6 h
- Tmax [1, 4]: 2.7 ± 1.2 h
- half-life [1, 4]: 4.3 ± 0.2 h
- AUC(0-inf) [1, 5]: 1590 ± 576 ng·h/mL
- AUC(0-t) [1, 5]: 1540 ± 550 ng·h/mL
- AUC(0-inf) [1, 6]: 3920 ± 1480 ng·h/mL
- Cmax [1, 6]: 505 ± 78.3 ng/mL
- AUC(0-t) [1, 6]: 3810 ± 1430 ng·h/mL
- BA ([1]; monkey PO 5.6 mg/kg vs IV 0.77 mg/kg): 34.1%
- MRT last ([2]; beagle, plasma, dog IV 1 mg/kg): 2.9 ± 0.6 h
- Vd ([2]; beagle, plasma, dog IV 1 mg/kg): 115 ± 61.1 L/kg
- clearance ([2]; beagle, plasma, dog IV 1 mg/kg): 158 mL/min/kg
- half-life ([2]; beagle, plasma, dog IV 1 mg/kg): 8.1 ± 1.4 h
- MRT last ([2]; beagle, plasma, dog PO 4 mg/kg): 3.8 ± 0.4 h
- Tmax ([2]; beagle, plasma, dog PO 4 mg/kg): 1 h
- half-life ([2]; beagle, plasma, dog PO 4 mg/kg): 8.8 ± 2.5 h
- AUC(0-inf) ([2]; beagle, dog IV 1 mg/kg, plasma): 117 ± 43.6 ng·h/mL
- AUC(0-t) ([2]; beagle, dog IV 1 mg/kg, plasma): 112 ± 43.4 ng·h/mL
- AUC(0-inf) ([2]; beagle, dog PO 4 mg/kg, plasma): 103 ± 13 ng·h/mL
- Cmax ([2]; beagle, dog PO 4 mg/kg, plasma): 32.8 ± 9.8 ng/mL
- AUC(0-t) ([2]; beagle, dog PO 4 mg/kg, plasma): 97.1 ± 14 ng·h/mL
- BA ([2]; dog PO 4 mg/kg vs IV 1 mg/kg): 21.6%
